Values of other authors, collected in patent publication US11642396B2 (priority 2013, dated 2023).

Test system: H7N9 infection
Details: human, in vivo

CCOC(=O)C1=C[C@@H](OC(CC)CC)[C@H](NC(C)=O)[C@@H](N)C1 [oseltamivir]
viral load in the respiratory tract of patients: reduce the viral load
